The values below come from patent publication US10980889B1 (Revolution Medicines, Inc., priority 2018, dated 2021).

Where two headings read alike, the source gives them in different places.

What all share (settings): two to four hours at 37° C.; for IC50: Homo sapiens, 4 h
One test concerns P-P70S6K (T389). The experiment in a line: Cell based AlphaLISA assay, inhibition of P-P70S6K (T389) in MDA-MB-468 cells (mTORC1 substrate). The method, boiled down: (§1)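 In MDA-MB-468 cells, phosphorylation of 4EBP1 (Thr37/46), P70S6K (Thr389) and AKT (Ser473) was measured after incubation with inhibitor by AlphaLISA SureFire Ultra on cell lysates, in duplicate. IC50 values came from control-normalized concentration-response regression.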
(In general: In Alpha technology, singlet oxygen from a donor bead excites a nearby acceptor bead.)

The test system of a further test is P-Akt (S473). The test is described as follows: Cell based AlphaLISA assay, inhibition of P-Akt (S473) in MDA-MB-468 cells (mTORC2 substrate). The method, boiled down: as §1
A further test deals with P-4E-BP1 (T37/46). The experiment in a line: Cell based AlphaLISA assay, inhibition of P-4E-BP1 (T37/46) in MDA-MB-468 cells (mTORC1 substrate). The method, boiled down:
as §1

The mark [1] stands for this setting: AlphaLisa, read-out: pIC50 for Inhibition of mTORC1 and mTORC2 Substrate Phosphorylation p-P70S6K-(T389) (converted).
Setting [2] is: AlphaLisa, read-out: pIC50 for Inhibition of mTORC1 and mTORC2 Substrate Phosphorylation p-AKT1/2/3-(S473) (converted).
Where [3] appears, read: AlphaLisa, read-out: pIC50 for Inhibition of mTORC1 and mTORC2 Substrate Phosphorylation P-4E-BP1-(T37/46) (converted).

With `CO[C@H]1C[C@@H]2CC[C@@H](C)[C@@](O)(O2)C(=O)C(=O)N2CCCC[C@H]2C(=O)O[C@H]([C@H](C)C[C@@H]2CC[C@@H](OC(=O)NCc3cnc(N4CCN(C(=O)CN(C)CC(=O)NCCOCCOCCC(=O)N5CCc6cc(Cn7nc(-c8ccc9oc(N)nc9c8)c8c(N)ncnc87)ccc6C5)CC4)nc3)[C@H](OC)C2)C[C@@H](OC)[C@H](C)/C=C(\C)[C@@H](O)[C@@H](OC)C(=O)[C@H](C)C[C@H](C)/C=C/C=C/C=C/1C` [Example 91], the figures for the IC50 in the test with P-P70S6K (T389) (setting [1]), in the test with P-Akt (S473) (setting [2]) and in the test with P-4E-BP1 (T37/46) (setting [3]) were < 1 nM, 3.16 to 31.6 nM and < 3.16 nM, respectively.
For `CO[C@H]1C[C@@H]2CC[C@@H](C)[C@@](O)(O2)C(=O)C(=O)N2CCCC[C@H]2C(=O)O[C@H]([C@H](C)C[C@@H]2CC[C@@H](OC(=O)NCc3cnc(N4CCN(C(=O)CCOCCN5CCN(c6ncc(C(=O)NCCS(=O)(=O)c7ccc(C(=O)N8CCOc9ccc(-c%10ccc(N)nc%10)cc9C8)c(C)c7)cn6)CC5)CC4)nc3)[C@H](OC)C2)C[C@@H](O)[C@H](C)/C=C(\C)[C@@H](O)[C@@H](OC)C(=O)[C@H](C)C[C@H](C)/C=C/C=C/C=C/1C` [Example 125], in that order: < 1 nM, 3.16 to 31.6 nM and < 3.16 nM.
For `CO[C@H]1C[C@@H]2CC[C@@H](C)[C@@](O)(O2)C(=O)C(=O)N2CCCC[C@H]2C(=O)O[C@H]([C@H](C)C[C@@H]2CC[C@@H](OC(=O)N3CCc4nc(N5CCN(CCOCCN6CCN(c7ncc(C(=O)N8CCc9cc(Cn%10nc(-c%11ccc%12oc(N)nc%12c%11)c%11c(N)ncnc%11%10)ccc9C8)cn7)CC6)CC5)ncc4C3)[C@H](OC)C2)C[C@@H](OC)[C@H](C)/C=C(\C)[C@@H](O)[C@@H](OC)C(=O)[C@H](C)C[C@H](C)/C=C/C=C/C=C/1C` [Example 129], in that order: < 1 nM, > 1000 nM and < 3.16 nM.
For `CO[C@H]1C[C@@H]2CC[C@@H](C)[C@@](O)(O2)C(=O)C(=O)N2CCCC[C@H]2C(=O)O[C@H]([C@H](C)C[C@@H]2CC[C@@H](OC(=O)NC3CCN(CC(=O)NCCOCCOCCOCCOCCOCCOCCC(=O)N4CCc5cc(Cn6nc(-c7ccc8oc(N)nc8c7)c7c(N)ncnc76)ccc5C4)CC3)[C@H](OC)C2)C[C@@H](OC)[C@H](C)/C=C(\C)[C@@H](O)[C@@H](OC)C(=O)[C@H](C)C[C@H](C)/C=C/C=C/C=C/1C` [Example 99], in that order: < 1 nM, > 1000 nM and < 3.16 nM.
As to `CO[C@H]1C[C@@H]2CC[C@@H](C)[C@@](O)(O2)C(=O)C(=O)N2CCCC[C@H]2C(=O)O[C@H]([C@H](C)C[C@@H]2CC[C@@H](OC(=O)NCc3cnc(N4CCN(c5ncc(C(=O)N(C)CCOCCOCCOCCOCCC(=O)N6CCc7cc(Cn8nc(-c9ccc%10oc(N)nc%10c9)c9c(N)ncnc98)ccc7C6)c(N)n5)CC4)nc3)[C@H](OC)C2)C[C@@H](OC)[C@H](C)/C=C(\C)[C@@H](O)[C@@H](OC)C(=O)[C@H](C)C[C@H](C)/C=C/C=C/C=C/1C` [Example 107], the “pIC50 for Inhibition of mTORC1 and mTORC2 Substrate Phosphorylation p-P70S6K-(T389)” value in the test with P-P70S6K (T389) (AlphaLisa) is reported as “+++ (≥9)”. In addition, the “pIC50 for Inhibition of mTORC1 and mTORC2 Substrate Phosphorylation p-AKT1/2/3-(S473)” value in the test with P-Akt (S473) (AlphaLisa) was “− (<6)”. Also, the “pIC50 for Inhibition of mTORC1 and mTORC2 Substrate Phosphorylation P-4E-BP1-(T37/46)” value in the test with P-4E-BP1 (T37/46) (AlphaLisa) is listed as “− (<6)”.
As to `CO[C@H]1C[C@@H]2CC[C@@H](C)[C@@](O)(O2)C(=O)C(=O)N2CCCC[C@H]2C(=O)O[C@H]([C@H](C)C[C@@H]2CC[C@@H](OC(=O)NCc3cnc(N4CCN(C(=O)CCOCCOCCN5CCN(c6ncc(C(=O)N7CCc8cc(Cn9nc(-c%10ccc%11[nH]ccc%11c%10)c%10c(N)ncnc%109)ccc8C7)cn6)CC5)CC4)nc3)[C@H](OC)C2)CC(=O)[C@H](C)/C=C(\C)[C@@H](O)[C@@H](OC)C(=O)[C@H](C)C[C@H](C)/C=C/C=C/C=C/1C` [Example 126], the IC50 was < 1 nM in the test on P-P70S6K (T389) (setting [1]), > 1000 nM with P-Akt (S473) (setting [2]) and 3.16 to 31.6 nM with P-4E-BP1 (T37/46) (setting [3]).
Take `CO[C@H]1C[C@@H]2CC[C@@H](C)[C@@](O)(O2)C(=O)C(=O)N2CCCC[C@H]2C(=O)O[C@H]([C@H](C)C[C@@H]2CC[C@@H](OC(=O)NCCOCCOCCOCCOCCOCCOCCOCCOCCC(=O)NCc3ccc(Cn4nc(-c5ccc6oc(N)nc6c5)c5c(N)ncnc54)cc3)[C@H](OC)C2)CC(=O)[C@H](C)/C=C(\C)[C@@H](O)[C@@H](OC)C(=O)[C@H](C)C[C@H](C)/C=C/C=C/C=C/1C` [Example 79]: the “pIC50 for Inhibition of mTORC1 and mTORC2 Substrate Phosphorylation p-P70S6K-(T389)” value in the test on P-P70S6K (T389) (AlphaLisa) is “+++ (≥9)”. The “pIC50 for Inhibition of mTORC1 and mTORC2 Substrate Phosphorylation p-AKT1/2/3-(S473)” value with P-Akt (S473) (AlphaLisa) is recorded as “+ (7.5 > pIC50 ≥ 6.0)”. In addition, the “pIC50 for Inhibition of mTORC1 and mTORC2 Substrate Phosphorylation P-4E-BP1-(T37/46)” value with P-4E-BP1 (T37/46) (AlphaLisa) is on record as “+++ (≥8.5)”.
For `CO[C@H]1C[C@@H]2CC[C@@H](C)[C@@](O)(O2)C(=O)C(=O)N2CCCC[C@H]2C(=O)O[C@H]([C@H](C)C[C@@H]2CC[C@@H](OC(=O)NCCOCCOCCOCCOCCOCCOCCOCCOCC(=O)N3CCc4cc(Cn5nc(-c6ccc7oc(N)nc7c6)c6c(N)ncnc65)ccc4C3)[C@H](OC)C2)C[C@@H](O)[C@H](C)/C=C(\C)[C@@H](O)[C@@H](OC)C(=O)[C@H](C)C[C@H](C)/C=C/C=C/C=C/1C` [Example 72], in that order: “+++ (≥9)”, “+++ (≥8.5)” and “+++ (≥8.5)”.
In the case of `CO[C@H]1C[C@@H]2CC[C@@H](C)[C@@](O)(O2)C(=O)C(=O)N2CCCC[C@H]2C(=O)O[C@H]([C@H](C)C[C@@H]2CC[C@@H](OC(=O)NCc3cnc(N4CCN(C(=O)CCOCCN5CCN(c6ncc(C(=O)N7CCc8cc(Cn9nc(-c%10ccc%11oc(N)nc%11c%10)c%10c(N)ncnc%109)ccc8C7)cn6)CC5)[C@@H](C(=O)O)C4)nc3)[C@H](OC)C2)C[C@@H](OC)[C@H](C)/C=C(\C)[C@@H](O)[C@@H](OC)C(=O)[C@H](C)C[C@H](C)/C=C/C=C/C=C/1C` [Example 134], the results for the IC50 with P-P70S6K (T389) (setting [1]), in the test with P-Akt (S473) (setting [2]) and in the test on P-4E-BP1 (T37/46) (setting [3]) were < 1 nM, > 1000 nM and < 3.16 nM, respectively.
For the molecule `CO[C@H]1C[C@@H]2CC[C@@H](C)[C@@](O)(O2)C(=O)C(=O)N2CCCC[C@H]2C(=O)O[C@H]([C@H](C)C[C@@H]2CC[C@@H](OC(=O)NCCOCCOCCOCCOCCOCCOCCOCCOCCC(=O)NCc3ccc(Cn4nc(-c5ccc6oc(N)nc6c5)c5c(N)ncnc54)cc3)[C@H](OC)C2)C[C@@H](OC)[C@H](C)/C=C(\C)[C@@H](O)[C@@H](OC)C(=O)[C@H](C)C[C@H](C)/C=C/C=C/C=C/1C` [Example 81], the “pIC50 for Inhibition of mTORC1 and mTORC2 Substrate Phosphorylation p-P70S6K-(T389)” value with P-P70S6K (T389) (AlphaLisa) was “+++ (≥9)”. The “pIC50 for Inhibition of mTORC1 and mTORC2 Substrate Phosphorylation p-AKT1/2/3-(S473)” value with P-Akt (S473) (AlphaLisa) is given as “− (<6)”. Also, the “pIC50 for Inhibition of mTORC1 and mTORC2 Substrate Phosphorylation P-4E-BP1-(T37/46)” value in the test with P-4E-BP1 (T37/46) (AlphaLisa) is “++ (8.5 > pIC50 ≥ 7.5)”.
Take `CO[C@H]1C[C@@H]2CC[C@@H](C)[C@@](O)(O2)C(=O)C(=O)N2CCCC[C@H]2C(=O)O[C@H]([C@H](C)C[C@@H]2CC[C@@H](O)[C@H](OC)C2)CC(=O)[C@H](C)/C=C(\C)[C@@H](O)[C@@H](OC)C(=O)[C@H](C)C[C@H](C)/C=C/C=C/C=C/1C` [Rapamycin, (3S,6R,7E,9R,10R,12R,14S,15E,17E,19E,21S,23S,26R,27R,34aS)-9,10,12,13,14,21,22,23,24,25,26,27,32,33,34,34a-hexadecahydro-9,27-dihydroxy-3-[(1R)-2-[(1S,3R,4R)-4-hydroxy-3-methoxycyclohexyl]-1-methylethyl]-10,21-dimethoxy-6,8,12,14,20,26-hexamethyl-23,27-epoxy-3H-pyrido[2,1-c][1,4]-oxaazacyclohentriacontine-1,5,11,28,29(4H,6H,31H)-pentone, reference compound]: the IC50 in the test with P-P70S6K (T389) (AlphaLisa SureFire Ultra, read-out: IC50 for Inhibition of mTORC1 and mTORC2 Substrate Phosphorylation (nM) p-P7056K-(T389)) is 0.2 nM; in the test with P-Akt (S473) (AlphaLisa SureFire Ultra, read-out: IC50 for Inhibition of mTORC1 and mTORC2 Substrate Phosphorylation (nM) p-AKT1/2/3-(5473)), > 1000 nM; in the test on P-4E-BP1 (T37/46) (AlphaLisa SureFire Ultra, read-out: IC50 for Inhibition of mTORC1 and mTORC2 Substrate Phosphorylation (nM) p-4E-BP1-(T37/46)), > 1000 nM.
With `CO[C@H]1C[C@@H]2CC[C@@H](C)[C@@](O)(O2)C(=O)C(=O)N2CCCC[C@H]2C(=O)O[C@H]([C@H](C)C[C@@H]2CC[C@@H](OC(=O)NCc3cnc(N4CCN(C(=O)CCOCCN5CCN(c6ncc(C(=O)N7CCc8cc(Cn9nc(-c%10ccc%11oc(N)nc%11c%10)c%10c(N)ncnc%109)ccc8C7)cn6)CC5)CC4)nc3)[C@H](OC)C2)C[C@H](N=[N+]=[N-])[C@H](C)/C=C(\C)[C@@H](O)[C@@H](OC)C(=O)[C@H](C)C[C@H](C)/C=C/C=C/C=C/1C` [Example 137], the IC50 is < 1 nM with P-P70S6K (T389) (setting [1]), 3.16 to 31.6 nM in the test on P-Akt (S473) (setting [2]) and < 3.16 nM with P-4E-BP1 (T37/46) (setting [3]).
For `CO[C@H]1C[C@@H]2CC[C@@H](C)[C@@](O)(O2)C(=O)C(=O)N2CCCCC2C(=O)O[C@H]([C@H](C)C[C@@H]2CC[C@@H](OC(=O)NCc3cnc(N4CCN(C(=O)CN(C)CC(=O)NCCOCCOCCC(=O)NCCCCn5nc(-c6ccc7oc(N)nc7c6)c6c(N)ncnc65)CC4)nc3)[C@H](OC)C2)C[C@@H](OC)[C@H](C)/C=C(\C)[C@@H](O)[C@@H](OC)C(=O)[C@H](C)C[C@H](C)/C=C/C=C/C=C/1C` (stereo partly drawn) [Example 92], in that order: < 1 nM, 3.16 to 31.6 nM and < 3.16 nM.
